Data reported in patent US4396613A, “23-Ester derivatives of DMT and method of using same” (Eli Lilly and Company, priority 1981, dated 1983).
In brackets after ≈: the same amount, converted by molar mass.

Legend:
Type in all cases: cell-based
[1] = system: Staphylococcus aureus V41; test: standard agar-dilution assay (MIC); settings: Staphylococcus aureus V41, penicillin-resistant strain, unit assumed
Procedure: (§1) The MIC's in Table II were determined by standard agar-dilution assays. The MIC's in Table III were obtained using a conventional broth-dilution microtiter test.
^b Penicillinresistant strain

[2] = system: Staphylococcus aureus X400; test: standard agar-dilution assay (MIC); settings: Staphylococcus aureus X400, methicillin-resistant strain, unit assumed
Procedure: as §1
^c Methicillinresistant-strain

[3] = system: Staphylococcus aureus S13E; test: standard agar-dilution assay (MIC); settings: unit assumed
Procedure: as §1

[4] = system: Staphylococcus aureus X1.1; test: standard agar-dilution assay (MIC); settings: unit assumed
Procedure: as §1

[5] = system: Staphylococcus epidermidis EPI1; test: standard agar-dilution assay (MIC); settings: unit assumed
Procedure: as §1

[6] = system: Staphylococcus epidermidis EPI2; test: standard agar-dilution assay (MIC); settings: unit assumed
Procedure: as §1

Streptococcus Group 9960 = test: standard agar-dilution assay (MIC); settings: unit assumed
Procedure: as §1

[7] = system: Streptococcus Group D X66; test: standard agar-dilution assay (MIC); settings: unit assumed
Procedure: as §1

[8] = system: Streptococcus pyogenes C203; test: standard agar-dilution assay (MIC); settings: unit assumed
Procedure: as §1

[9] = system: Streptococcus pneumoniae Park I; settings: agar dilution, unit assumed
Procedure: as §1

Mycoplasma gallisepticum = test: conventional broth-dilution microtiter test (MIC); settings: unit assumed
Procedure: as §1

Mycoplasma hyorhinis = test: conventional broth-dilution microtiter test (MIC); settings: unit assumed
Procedure: as §1

Mycoplasma synoviae = test: conventional broth-dilution microtiter test (MIC); settings: unit assumed
Procedure: as §1

[10] = system: Pasteurella multocida 17E; test: conventional broth-dilution microtiter test (MIC); settings: bovine isolate, unit assumed
Procedure: as §1

[11] = system: Pasteurella multocida 60A; test: conventional broth-dilution microtiter test (MIC); settings: avian isolate, unit assumed
Procedure: as §1

Staphylococcus aureus = test: conventional broth-dilution microtiter test (MIC); settings: unit assumed
Procedure: as §1

Streptococcus sp. 80 = test: conventional broth-dilution microtiter test (MIC); settings: unit assumed
Procedure: as §1

[12] = system: Haemophilus influenzae Holt; test: standard agar-dilution assay (MIC); settings: ampicillin-sensitive strain, unit assumed
Procedure: as §1

[13] = system: Haemophilus influenzae R252; test: standard agar-dilution assay (MIC); settings: Haemophilus influenzae R252, ampicillin-resistant strain, unit assumed
Procedure: as §1

SMILES	MIC [1] [µg/mL]	MIC [2] [µg/mL]	MIC [3] [µg/mL]	MIC [4] [µg/mL]	MIC [5] [µg/mL]	MIC [6] [µg/mL]	MIC (Streptococcus Group 9960) [µg/mL]	MIC [7] [µg/mL]	MIC [8] [µg/mL]	MIC [9] [µg/mL]	MIC (Mycoplasma gallisepticum) [µg/mL]	MIC (Mycoplasma hyorhinis) [µg/mL]	MIC (Mycoplasma synoviae) [µg/mL]	MIC [10] [µg/mL]	MIC [11] [µg/mL]	MIC (Staphylococcus aureus) [µg/mL]	MIC (Streptococcus sp. 80) [µg/mL]	MIC [12] [µg/mL]	MIC [13] [µg/mL]
CCCCCCCC(=O)OCC1C=C(C)C=CC(=O)C(C)CC(CC=O)C(OC2OC(C)C(OC3CC(C)(O)C(O)C(C)O3)C(N(C)C)C2OC(C)=O)C(C)C(O)CC(=O)OC1CC (centres unmarked) [Compound 7]	2 (≈ 2.2 µM)	4 (≈ 4.39 µM)	2 (≈ 2.2 µM)	2 (≈ 2.2 µM)	2 (≈ 2.2 µM)	4 (≈ 4.39 µM)	2 (≈ 2.2 µM)	2 (≈ 2.2 µM)	0.5 (≈ 0.549 µM)	0.5 (≈ 0.549 µM)	1.56 (≈ 1.71 µM)	6.25 (≈ 6.87 µM)	12.5 (≈ 13.7 µM)	> 50	> 50	1.56 (≈ 1.71 µM)	1.56 (≈ 1.71 µM)	–	–
CCC1OC(=O)CC(O)C(C)C(OC2OC(C)C(OC3CC(C)(O)C(O)C(C)O3)C(N(C)C)C2OC(C)=O)C(CC=O)CC(C)C(=O)C=CC(C)=CC1COC(=O)C(C)(C)C (centres unmarked) [Compound 8]	0.5 (≈ 0.576 µM)	1 (≈ 1.15 µM)	0.5 (≈ 0.576 µM)	0.5 (≈ 0.576 µM)	0.5 (≈ 0.576 µM)	1 (≈ 1.15 µM)	0.5 (≈ 0.576 µM)	0.5 (≈ 0.576 µM)	0.25 (≈ 0.288 µM)	0.06 (≈ 0.0691 µM)	0.39 (≈ 0.449 µM)	3.12 (≈ 3.59 µM)	0.39 (≈ 0.449 µM)	12.5 (≈ 14.4 µM)	12.5 (≈ 14.4 µM)	3.12 (≈ 3.59 µM)	> 0.78	16 (≈ 18.4 µM)	4 (≈ 4.61 µM)
CCC1OC(=O)CC(O)C(C)C(OC2OC(C)C(OC3CC(C)(O)C(O)C(C)O3)C(N(C)C)C2OC(C)=O)C(CC=O)CC(C)C(=O)C=CC(C)=CC1COC(=O)NCc1ccccc1 (centres unmarked) [Compound 30]	1 (≈ 1.09 µM)	0.5 (≈ 0.545 µM)	0.5 (≈ 0.545 µM)	0.5 (≈ 0.545 µM)	0.5 (≈ 0.545 µM)	0.5 (≈ 0.545 µM)	0.5 (≈ 0.545 µM)	0.5 (≈ 0.545 µM)	0.5 (≈ 0.545 µM)	–	0.39 (≈ 0.425 µM)	1.56 (≈ 1.7 µM)	0.78 (≈ 0.851 µM)	–	12.5 (≈ 13.6 µM)	–	0.78 (≈ 0.851 µM)	8 (≈ 8.72 µM)	4 (≈ 4.36 µM)
CCC1OC(=O)CC(O)C(C)C(OC2OC(C)C(OC3CC(C)(O)C(O)C(C)O3)C(N(C)C)C2OC(C)=O)C(CC=O)CC(C)C(=O)C=CC(C)=CC1COC(=O)Cc1ccc([N+](=O)[O-])cc1 (centres unmarked) [Compound 15, 2'-O-Acetyl-23-O-(p-nitrophenylacetyl)-DMT]	0.5 (≈ 0.528 µM)	0.5 (≈ 0.528 µM)	0.25 (≈ 0.264 µM)	0.25 (≈ 0.264 µM)	0.5 (≈ 0.528 µM)	0.5 (≈ 0.528 µM)	0.25 (≈ 0.264 µM)	0.25 (≈ 0.264 µM)	0.125 (≈ 0.132 µM)	–	0.39 (≈ 0.412 µM)	0.78 (≈ 0.824 µM)	< 0.05	3.12 (≈ 3.29 µM)	6.25 (≈ 6.6 µM)	1.56 (≈ 1.65 µM)	0.39 (≈ 0.412 µM)	8 (≈ 8.45 µM)	4 (≈ 4.22 µM)
CCC1OC(=O)CC(O)C(C)C(OC2OC(C)C(OC3CC(C)(O)C(O)C(C)O3)C(N(C)C)C2O)C(CC=O)CC(C)C(=O)C=CC(C)=CC1COC(=O)NCCN1CCOCC1 (centres unmarked) [Compound 29]	1 (≈ 1.11 µM)	4 (≈ 4.45 µM)	2 (≈ 2.23 µM)	1 (≈ 1.11 µM)	1 (≈ 1.11 µM)	2 (≈ 2.23 µM)	2 (≈ 2.23 µM)	2 (≈ 2.23 µM)	0.5 (≈ 0.557 µM)	0.125 (≈ 0.139 µM)	0.39 (≈ 0.434 µM)	6.25 (≈ 6.96 µM)	1.56 (≈ 1.74 µM)	12.5 (≈ 13.9 µM)	25 (≈ 27.8 µM)	1.56 (≈ 1.74 µM)	0.78 (≈ 0.868 µM)	16 (≈ 17.8 µM)	16 (≈ 17.8 µM)
CCC1OC(=O)CC(O)C(C)C(OC2OC(C)C(OC3CC(C)(O)C(O)C(C)O3)C(N(C)C)C2O)C(CC=O)CC(C)C(=O)C=CC(C)=CC1COC(=O)n1ccnc1 (centres unmarked) [Compound 22]	1 (≈ 1.2 µM)	1 (≈ 1.2 µM)	0.5 (≈ 0.598 µM)	0.5 (≈ 0.598 µM)	0.5 (≈ 0.598 µM)	0.5 (≈ 0.598 µM)	0.5 (≈ 0.598 µM)	1 (≈ 1.2 µM)	0.25 (≈ 0.299 µM)	–	3.12 (≈ 3.73 µM)	1.56 (≈ 1.87 µM)	1.56 (≈ 1.87 µM)	12.5 (≈ 15 µM)	25 (≈ 29.9 µM)	6.25 (≈ 7.48 µM)	1.56 (≈ 1.87 µM)	16 (≈ 19.1 µM)	8 (≈ 9.57 µM)
CCC(=O)OCC1C=C(C)C=CC(=O)C(C)CC(CC=O)C(OC2OC(C)C(OC3CC(C)(O)C(O)C(C)O3)C(N(C)C)C2OC(C)=O)C(C)C(O)CC(=O)OC1CC (centres unmarked) [Compound 5, 2'-O-Acetyl-23-O-propionyl DMT]	0.5 (≈ 0.595 µM)	1 (≈ 1.19 µM)	1 (≈ 1.19 µM)	0.5 (≈ 0.595 µM)	1 (≈ 1.19 µM)	1 (≈ 1.19 µM)	1 (≈ 1.19 µM)	1 (≈ 1.19 µM)	0.5 (≈ 0.595 µM)	0.5 (≈ 0.595 µM)	≤ 0.024	1.56 (≈ 1.86 µM)	0.097 (≈ 0.115 µM)	6.25 (≈ 7.44 µM)	12.5 (≈ 14.9 µM)	–	≤ 0.78	16 (≈ 19 µM)	32 (≈ 38.1 µM)
CCC1OC(=O)CC(O)C(C)C(OC2OC(C)C(OC3CC(C)(O)C(O)C(C)O3)C(N(C)C)C2OC(C)=O)C(CC=O)CC(C)C(=O)C=CC(C)=CC1COC(=O)Cc1ccccc1 (centres unmarked) [Compound 9, 2'-O-Acetyl-23-O-phenylacetyl-DMT]	0.5 (≈ 0.554 µM)	0.5 (≈ 0.554 µM)	0.5 (≈ 0.554 µM)	0.5 (≈ 0.554 µM)	0.5 (≈ 0.554 µM)	0.5 (≈ 0.554 µM)	0.25 (≈ 0.277 µM)	0.5 (≈ 0.554 µM)	0.125 (≈ 0.139 µM)	0.015 (≈ 0.0166 µM)	≤ 0.048	0.78 (≈ 0.865 µM)	–	3.12 (≈ 3.46 µM)	6.25 (≈ 6.93 µM)	0.195 (≈ 0.216 µM)	≤ 0.048	4 (≈ 4.43 µM)	4 (≈ 4.43 µM)
CCC1OC(=O)CC(O)C(C)C(OC2OC(C)C(OC3CC(C)(O)C(O)C(C)O3)C(N(C)C)C2OC(C)=O)C(CC=O)CC(C)C(=O)C=CC(C)=CC1COC(=O)COc1ccccc1 (centres unmarked) [Compound 12, 2'-O-Acetyl-23-O-phenoxyacetyl-DMT]	0.25 (≈ 0.272 µM)	0.5 (≈ 0.545 µM)	0.5 (≈ 0.545 µM)	0.25 (≈ 0.272 µM)	0.5 (≈ 0.545 µM)	0.5 (≈ 0.545 µM)	0.5 (≈ 0.545 µM)	0.5 (≈ 0.545 µM)	0.125 (≈ 0.136 µM)	–	0.097 (≈ 0.106 µM)	6.25 (≈ 6.81 µM)	0.78 (≈ 0.85 µM)	6.25 (≈ 6.81 µM)	6.25 (≈ 6.81 µM)	0.39 (≈ 0.425 µM)	0.195 (≈ 0.212 µM)	16 (≈ 17.4 µM)	8 (≈ 8.71 µM)
CCC1OC(=O)CC(O)C(C)C(OC2OC(C)C(OC3CC(C)(O)C(O)C(C)O3)C(N(C)C)C2OC(C)=O)C(CC=O)CC(C)C(=O)C=CC(C)=CC1COC(=O)CCc1ccccc1 (centres unmarked) [Compound 13]	1 (≈ 1.09 µM)	1 (≈ 1.09 µM)	0.5 (≈ 0.546 µM)	0.25 (≈ 0.273 µM)	1 (≈ 1.09 µM)	1 (≈ 1.09 µM)	0.5 (≈ 0.546 µM)	0.5 (≈ 0.546 µM)	0.25 (≈ 0.273 µM)	0.015 (≈ 0.0164 µM)	≤ 0.048	3.12 (≈ 3.41 µM)	–	1.56 (≈ 1.7 µM)	12.5 (≈ 13.6 µM)	0.78 (≈ 0.851 µM)	≤ 0.048	2 (≈ 2.18 µM)	2 (≈ 2.18 µM)
CCC1OC(=O)CC(O)C(C)C(OC2OC(C)C(OC3CC(C)(O)C(O)C(C)O3)C(N(C)C)C2O)C(CC=O)CC(C)C(=O)C=CC(C)=CC1COC(=O)NCCCO (centres unmarked) [Compound 26]	2 (≈ 2.37 µM)	4 (≈ 4.74 µM)	4 (≈ 4.74 µM)	1 (≈ 1.19 µM)	1 (≈ 1.19 µM)	2 (≈ 2.37 µM)	2 (≈ 2.37 µM)	2 (≈ 2.37 µM)	0.25 (≈ 0.297 µM)	0.125 (≈ 0.148 µM)	0.78 (≈ 0.925 µM)	6.25 (≈ 7.41 µM)	0.39 (≈ 0.463 µM)	6.25 (≈ 7.41 µM)	12.5 (≈ 14.8 µM)	1.56 (≈ 1.85 µM)	0.39 (≈ 0.463 µM)	16 (≈ 19 µM)	–
CCC1OC(=O)CC(O)C(C)C(OC2OC(C)C(OC3CC(C)(O)C(O)C(C)O3)C(N(C)C)C2OC(C)=O)C(CC=O)CC(C)C(=O)C=CC(C)=CC1COC(=O)Cc1ccc(Cl)cc1 (centres unmarked) [Compound 14, 2'-O-Acetyl-23-O-(p-chlorophenylacetyl)-DMT]	2 (≈ 2.14 µM)	2 (≈ 2.14 µM)	1 (≈ 1.07 µM)	0.5 (≈ 0.534 µM)	1 (≈ 1.07 µM)	2 (≈ 2.14 µM)	1 (≈ 1.07 µM)	1 (≈ 1.07 µM)	0.5 (≈ 0.534 µM)	–	< 0.048	6.25 (≈ 6.67 µM)	0.78 (≈ 0.833 µM)	3.12 (≈ 3.33 µM)	6.25 (≈ 6.67 µM)	0.39 (≈ 0.416 µM)	0.78 (≈ 0.833 µM)	4 (≈ 4.27 µM)	4 (≈ 4.27 µM)
CCC1OC(=O)CC(O)C(C)C(OC2OC(C)C(OC3CC(C)(O)C(O)C(C)O3)C(N(C)C)C2OC(C)=O)C(CC=O)CC(C)C(=O)C=CC(C)=CC1COC(=O)C(Cl)(Cl)Cl (centres unmarked) [Compound 16]	2 (≈ 2.15 µM)	4 (≈ 4.3 µM)	1 (≈ 1.08 µM)	1 (≈ 1.08 µM)	1 (≈ 1.08 µM)	4 (≈ 4.3 µM)	1 (≈ 1.08 µM)	1 (≈ 1.08 µM)	0.5 (≈ 0.538 µM)	0.03 (≈ 0.0323 µM)	0.39 (≈ 0.42 µM)	3.12 (≈ 3.36 µM)	–	6.25 (≈ 6.73 µM)	12.5 (≈ 13.5 µM)	1.56 (≈ 1.68 µM)	0.39 (≈ 0.42 µM)	2 (≈ 2.15 µM)	2 (≈ 2.15 µM)
